Here are results for eight substances from patent US9597393B2, “Synthetic toll-like receptor-4 (TLR-4) agonist peptides” (AV Therapeutics, Inc., priority 2012, dated 2017).

“Also recorded” adds a separate entry of the source. Ends that are not written are not given here.

The target of one data set is T1, TLR-4 (Homo sapiens, UniProt O00206).
T1 construct: host or cells: HEK-BLUE-4 (transgenic HEK293)
Kind of data set: NF-κB activation (SEAP reporter) in HEK-BLUE-4 cells. The class given is cell-based. The following applies: peptide 1, 5 and 10 μg/ml. On the procedure: FIG. 2—LPS peptide mimics activate NF-κB in HEK-BLUE™-4. LPS peptide mimics were dissolved in endotoxin free water and added to 96-well plates at three concentrations; 1 μg/ml (black bar), 5 μg/ml (gray bar), and 10 μg/ml (white bar). HEK-BLUE™4 were then added to each well at a concentration of 5×10^4 cells per well in complete media. The supernatant was then harvested after 24 h and assayed for alkaline phosphatase secretion indicating activation of NF-κB. NF-κB activation is represented in FIG. 2A for peptides RS01-RS07 and in FIG. 2B for peptides RS08-RS12. LPS was used as a positive control in assaying all peptides for NF-κB activation. Absorbance was taken at 630 nm. Each experiment was repeated three times with similar results observed. The standard deviation shown above each sample represents three replicates in one experiment.
The twelve peptides were assayed for their ability to bind to TLR-4 and activate NF-κB using a transgenic HEK293 cell line known as HEK-BLUE™-4. This cell line is stably transfected to only express TLR-4 on its plasma membrane, with no other TLRs present. Detecting activation of NF-κB is made possible by placing secreted alkaline phosphatase (SEAP) under the control of the NF-κB promoter. Therefore, NF-κB activation leads to SEAP secretion, which is detected by an alkaline phosphatase substrate in cell culture media.
The LPS peptide mimics were dissolved in endotoxin free water (HyClone) at a concentration of 1 μg/ml with the exception of peptide 4 which was dissolved in a solution of 1% DMSO made in endotoxin free water at 1 μg/ml concentration. All of the peptide stock solutions and stored at −80° C. Each of the 12 peptides (RS01-RS12) was added to 96-well plates in triplicate in a total volume of 20 μl. The total volume required in each•well was made up with endotoxin free water (HyClone). […] After a noticeable color change, the absorbance was taken at 630 nm using the microplate reader (Bio-Rad). […]

Data set [1] in a line: Water solubility of peptide stock. Particulars: endotoxin free water; dissolved in 1% DMSO instead. Type of data set: physicochemical. The method, then: The LPS peptide mimics were dissolved in endotoxin free water (HyClone) at a concentration of 1 μg/ml with the exception of peptide 4 which was dissolved in a solution of 1% DMSO made in endotoxin free water at 1 μg/ml concentration. All of the peptide stock solutions and stored at −80° C. Each of the 12 peptides (RS01-RS12) was added to 96-well plates in triplicate in a total volume of 20 μl. The total volume required in each•well was made up with endotoxin free water (HyClone). 5×10^4 HEK-BLUE™-4 cells (Invivogen, San Diego, Calif.) were added per well and incubated for approximately 20 h after which the supernatant from each well was collected and placed into a new 96-well plate. 180 μl of HEK-BLUE™ detection media (Invivogen), alkaline phosphatase detection substrate, was added to each well and incubated for 1-3 h at 37° C. After a noticeable color change, the absorbance was taken at 630 nm using the microplate reader (Bio-Rad).
For all peptides, three concentrations, 1 μg/ml (black bars), 5 μg/ml (gray bars), and 10 μg/ml (white bars) were used to activate HEK-BLUE™-4 cells. LPS (0.1 μg/ml) was used as a positive control.

A short description of data set [2]: Immunogenicity of the adjuvant peptide itself in mice. Type of data set: in vivo. The following applies: two groups of 3 mice vaccinated with 25 ng of peptide alone; data not shown. The source says: This significant increase in X-15 specific antibody concentration with RS09 was observed on day 28 (white bar) post vaccination as shown in FIG. 6. […] Thus, while RS01 and RS09 were not immunogenic at the concentration used, RS09 was capable of enhancing production of X-15 specific antibodies.

The next data set relates to prostate tumor. Particulars: in vivo, administered with an adjuvant; cited from earlier work.
The test system of a further data set is RAW264.7 cells. Kind of data set: Inflammatory cytokine secretion from RAW264.7 macrophages (antibody array). The class given is cell-based, mouse. Particulars: 24 h. The method, then:
FIG. 5—RAW264.7 secretes inflammatory cytokines in response to RS01 and RS09. RAW264.7 cells were seeded at a density of 1×10^6 cells per well of a six well plate followed by addition of either […] (FIG. 5A) or RS09 (FIG. 5B) and incubated for 24 h after which the culture media was collected. LPS was used as a positive control for both RS01 and RS09. Culture media was then analyzed for specific cytokines using an antibody array kit. […] Each cytokine is represented as an IDV value which was calculated by comparing the density of each spot with respect to the density of the internal positive controls. The antibody array represents a qualitative comparison of each cytokine and is […]. Each experiment was repeated three times with similar results observed. […]
RAW264. […] The blots were then developed using ECL (Pierce) and detected on HyBlot CL™ autoradiography film (Denville Scientific). […]
Although the values obtained for each cytokine are not quantitative but rather qualitative, they do show an increase in release of inflammatory cytokines. These values were calculated and presented as IDV, which is the density of each spot compared to the density of the internal positive controls present on each membrane. Values for the various cytokines and chemokines detected are presented in FIG. 5A for RS01 and FIG. 5B for RS09. […]

For data set [3], the system named is NF-κB. Kind of data set: NF-κB nuclear translocation Western blot in non-TLR-4 expressing HEK293 (negative control cells). Type of data set: cell-based. Particulars: HEK293 lacking TLR-4. On the procedure: FIG. 3—LPS peptide mimics lead to NF-κB nuclear translocation. Nuclear translocation studies of NF-κB were performed by Western blot analysis on both RAW264.7 (FIG. 3A), HEK-BLUE™-4 (FIG. 3B), and HEK293 (FIG. 3C) cells. Cells were stimulated with peptide, either RS01 or RS09, at a concentration of 5 μg/ml per 5×10^4 cells at various time points (15, 30, 60, and 120 min) Nuclear protein fractions were assayed for NF-κB while cytoplasmic proteins fractions were assayed for both NF-κB and IκB-α. HDAC was used as a nuclear protein loading control and actin was used as a cytoplasmic protein loading control.
For NF-KB nuclear translocation western blots, cytoplasmic and nuclear protein extracts were prepared from HEK-BLUE™-4, HEK293, and RAW264.7 cells (2×10^6 cells) using NE-PER, nuclear and cytoplasmic extraction reagent kit (PIERCE, Rockford, Ill.). The manufacturer's protocol was followed to separate cytoplasmic and nuclear fractions. Nuclear and cytoplasmic lysates (10 μg protein) were subjected to 12% SDS-PAGE under reducing conditions (presence of β-mercaptoethanol). […] After four washes with TBST and one wash with TBS, membranes were developed by ECL (Pierce) and detected on HyBlot CL™ autoradiography film (Denville Scientific, Inc, Metuchen, N.J.). […]
Background: A western blot detects proteins with antibodies after separation by electrophoresis.

Data set [4] deals with NF-κB. Kind of data set: Fluorescence microscopy of NF-κB nuclear translocation in RAW264.7. Type of data set: cell-based. The following applies: 5 μg/ml, 30 min. The method, then: FIG. 4—Fluorescence microscopy of NF-κB nuclear translocation. RAW264.7 macrophages were seeded in 8 well chamber slides at a density of 2×10^4 cells per well and stimulated with 5 μg/ml of either RS01 or RS09. After 30 min incubation, cells were fixed (4% para-formaldehyde), permeabilized (0.2% TRITON® X-100), blocked (10% goat serum/1% BSA), and incubated with anti-NF-κB followed by DAPI staining of nuclei. The stained cells were visualized using the Axiovert 200 M microscope with a 40× magnification. NF-KB (green) was more diffusely spread throughout the cytoplasm in control cells but appeared more circular in RS01, RS09, and LPS treated cells.
HEK-BLUE™-4 and RAW264.7 cells were seeded in 8-chamber slides (BD Biosciences, Bedford, Mass.) at a density of 2×10^4 cells per well. Cells were allowed to adhere at 37° C. over night after which the cells were stimulated with LPS peptide mimics at various time points and subsequently processed for immunofluorescence. The cells were fixed with a 4% paraformaldehyde/PBS solution, followed by permeabilization with 0.2% TRITON® X-100, and blocked using a solution of 0.1% TRITON® X-100, 1% BSA, and 10% goat serum. […]

T1 sequence (O00206 24-839): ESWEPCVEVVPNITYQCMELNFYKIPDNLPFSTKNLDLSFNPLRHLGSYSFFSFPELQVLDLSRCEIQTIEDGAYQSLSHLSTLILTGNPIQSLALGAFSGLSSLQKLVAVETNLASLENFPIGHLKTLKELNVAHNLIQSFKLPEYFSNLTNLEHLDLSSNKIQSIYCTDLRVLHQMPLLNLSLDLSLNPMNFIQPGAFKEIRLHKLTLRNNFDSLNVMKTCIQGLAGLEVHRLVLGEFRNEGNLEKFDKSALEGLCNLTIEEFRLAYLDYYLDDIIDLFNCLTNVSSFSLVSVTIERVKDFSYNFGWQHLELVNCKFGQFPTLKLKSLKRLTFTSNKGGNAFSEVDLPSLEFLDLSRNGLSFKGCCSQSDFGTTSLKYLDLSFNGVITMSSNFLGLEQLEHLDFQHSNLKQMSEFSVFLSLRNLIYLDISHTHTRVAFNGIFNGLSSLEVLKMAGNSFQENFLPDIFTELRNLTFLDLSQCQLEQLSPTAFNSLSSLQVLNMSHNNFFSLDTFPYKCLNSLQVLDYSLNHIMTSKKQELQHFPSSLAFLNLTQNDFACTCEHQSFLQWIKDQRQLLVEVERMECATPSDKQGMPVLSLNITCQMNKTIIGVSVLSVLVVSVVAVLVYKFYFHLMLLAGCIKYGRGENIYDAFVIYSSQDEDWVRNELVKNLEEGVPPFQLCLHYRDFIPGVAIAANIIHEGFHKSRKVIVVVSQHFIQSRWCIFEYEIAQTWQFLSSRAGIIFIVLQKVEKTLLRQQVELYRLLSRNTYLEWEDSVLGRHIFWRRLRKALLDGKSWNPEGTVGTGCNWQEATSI
T1 sequence (Q9Y6Y9 17-160 partner limits assumed): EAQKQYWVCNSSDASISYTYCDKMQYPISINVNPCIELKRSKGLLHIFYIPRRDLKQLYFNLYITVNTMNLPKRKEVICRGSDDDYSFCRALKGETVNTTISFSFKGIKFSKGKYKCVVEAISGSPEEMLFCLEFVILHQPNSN

Take VVPTPPY [RS11]: the “TLR-4 stimulation and NF-κB activation (alkaline phosphatase secretion, absorbance 630 nm)” value (“TLR-4 stimulation and NF-κB activation” below) in the data set with TLR-4 is “considered as positive for TLR-4 stimulation and NF-κB activation”.
Regarding “GLQQVLL [RS04, Gly Leu Gln Gln Val Leu Leu]”, in data set [1], the water solubility entry is recorded as “not water soluble”.
Regarding “APPHALS [RS09, Ala Pro Pro His Ala Leu Ser]”, the “antibody response to the adjuvant peptide (immunogenicity)” value in data set [2] is on record as “no antibodies were produced”.
For the substance “QEINSSY [RS01, Gln Glu Ile Asn Ser Ser Tyr]”, the “antibody response to the adjuvant peptide (immunogenicity)” value in data set [2] is recorded as “no antibodies were produced”.
In the case of “GQWQSGDRYWMETST (also: KLH conjugate) [Peptide X-15]”, in the data set on prostate tumor, the “prostate tumor protective properties” value is given as “possess prostate tumor protective properties in vivo”.
SMPNPMV [RS03]: the “TLR-4 stimulation and NF-κB activation” value in the data set with TLR-4 is “considered as TLR-4 stimulating and hence activators of NF-κB”.
Take ELAPDSP [RS12]: the “TLR-4 stimulation and NF-κB activation” value with TLR-4 was “considered as positive for TLR-4 stimulation and NF-κB activation”.
For Lipopolysaccharide [LPS], the “secretion of inflammatory cytokines and chemokines (IDV, qualitative)” value with RAW264.7 cells was “capable of inducing inflammatory cytokines and chemokines”. Also, the NF-κB nuclear translocation result with NF-κB [3] is listed as “do not activate the non-TLR-4 expressing HEK293 cells; also recorded: did not result in nuclear translocation”. Moreover, in the data set with NF-κB [4], the “NF-κB nuclear localization (immunofluorescence, DAPI merge)” value was “nuclear localization of NF-κB was observed”.
